According to PubChem BioAssay AID248 (DTP/NCI, 2004):
Several values for one entry are separate records, joined by “and”; a condition that tells them apart may be missing. Equal entries are not always repeated. Toxic doses and inconclusive results are not listed. No stated cut-off is given here; in the data, active means T/C of 150% or more; inactive means T/C below 125%.

Tested on: L1210 leukemia ip in BDF1 mice, survival T/C
Assay: NCI In Vivo Anticancer Drug Screen. Data for tumor model L1210 Leukemia (intraperitoneal) in B6D2F1 (BDF1) mice
Details: higher = longer survival
How it was run: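 Transplanted-tumor mice were given test agent; controls received vehicle only. Survival readings from the two groups were divided (treated over control).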

Measured: T/C

Cc1c2ccncc2c(C)c2c1[nH]c1ccccc12
inactive: endpoint: mean survival time, dose: 0.31 mg/kg/injection, schedule: Q#A X018 (ip), vehicle: other 102 % of control | endpoint: mean survival time, dose: 0.5 mg/kg/injection, schedule: Q01DX005 (ip), vehicle: other 105 % of control | endpoint: mean survival time, dose: 0.59 mg/kg/injection, schedule: Q03HX008 (ip), vehicle: other 94 % of control | endpoint: mean survival time, dose: 1.0 mg/kg/injection, schedule: Q01DX009 (ip), vehicle: other 111 % of control | endpoint: mean survival time, dose: 1.0 mg/kg/injection, schedule: Q01DX009 (ip), vehicle: water 107 % of control and 110 % of control | endpoint: mean survival time, dose: 1.0 mg/kg/injection, schedule: Q03HX024 (ip), vehicle: acid diluted with saline 110 % of control | endpoint: mean survival time, dose: 1.18 mg/kg/injection, schedule: Q03HX008 (ip), vehicle: other 98 % of control | endpoint: mean survival time, dose: 1.25 mg/kg/injection, schedule: Q#A X018 (ip), vehicle: other 110 % of control | endpoint: mean survival time, dose: 2.0 mg/kg/injection, schedule: Q01DX009 (ip), vehicle: other 111 % of control | endpoint: mean survival time, dose: 2.0 mg/kg/injection, schedule: Q03HX016 (ip), vehicle: clinical formulation 105 % of control | endpoint: mean survival time, dose: 2.0 mg/kg/injection, schedule: Q03HX016 (oral), vehicle: clinical formulation 95 % of control | endpoint: mean survival time, dose: 3.12 mg/kg/injection, schedule: Q01DX005 (oral), vehicle: saline 95 % of control | endpoint: mean survival time, dose: 3.12 mg/kg/injection, schedule: Q01DX009 (ip), vehicle: clinical formulation 102 % of control | endpoint: mean survival time, dose: 3.12 mg/kg/injection, schedule: Q04DX003 (ip), vehicle: clinical formulation 108 % of control | endpoint: mean survival time, dose: 3.12 mg/kg/injection, schedule: Q04DX009 (ip), vehicle: citric acid 101 % of control | endpoint: mean survival time, dose: 4.0 mg/kg/injection, schedule: Q01DX009 (oral), vehicle: clinical formulation 102 % of control | endpoint: mean survival time, dose: 4.0 mg/kg/injection, schedule: Q03HX008 (oral), vehicle: clinical formulation 109 % of control | endpoint: mean survival time, dose: 4.0 mg/kg/injection, schedule: Q03HX016 (oral), vehicle: clinical formulation 105 % of control | endpoint: mean survival time, dose: 4.0 mg/kg/injection, schedule: Q03HX024 (oral), vehicle: clinical formulation 110 % of control | endpoint: mean survival time, dose: 5.0 mg/kg/injection, schedule: Q01DX015 (oral), vehicle: carboxymethylcellulose (CMC) 105 % of control | endpoint: mean survival time, dose: 6.2 mg/kg/injection, schedule: Q01DX001 (ip), vehicle: saline 108 % of control | endpoint: mean survival time, dose: 6.2 mg/kg/injection, schedule: Q01DX Z (oral), vehicle: saline 110 % of control | endpoint: mean survival time, dose: 6.25 mg/kg/injection, schedule: Q01DX005 (oral), vehicle: saline 104 % of control | endpoint: mean survival time, dose: 6.25 mg/kg/injection, schedule: Q01DX005 (oral), vehicle: water 106 % of control | endpoint: mean survival time, dose: 6.25 mg/kg/injection, schedule: Q04DX003 (ip), vehicle: citric acid 107 % of control | endpoint: mean survival time, dose: 6.25 mg/kg/injection, schedule: Q04DX003 (ip), vehicle: clinical formulation 109 % of control and 110 % of control | endpoint: mean survival time, dose: 6.25 mg/kg/injection, schedule: Q04DX009 (ip), vehicle: citric acid 110 % of control | endpoint: mean survival time, dose: 8.0 mg/kg/injection, schedule: Q04DX003 (ip), vehicle: Klucel (hydroxypropylcellulose) (HPC) 110 % of control | endpoint: mean survival time, dose: 8.0 mg/kg/injection, schedule: Q04DX003 (ip), vehicle: acid diluted with saline 109 % of control | endpoint: mean survival time, dose: 9.37 mg/kg/injection, schedule: Q01DX001 (ip), vehicle: other 103 % of control | endpoint: mean survival time, dose: 9.37 mg/kg/injection, schedule: Q01DX001 (sc), vehicle: other 103 % of control and 104 % of control | endpoint: mean survival time, dose: 9.38 mg/kg/injection, schedule: Q01DX001 (ip), vehicle: other 100 % of control | endpoint: mean survival time, dose: 9.38 mg/kg/injection, schedule: Q04DX003 (ip), vehicle: clinical formulation 110 % of control | endpoint: mean survival time, dose: 10.0 mg/kg/injection, schedule: Q01DX015 (oral), vehicle: carboxymethylcellulose (CMC) 110 % of control | endpoint: mean survival time, dose: 12.5 mg/kg/injection, schedule: Q01DX005 (oral), vehicle: water 109 % of control | endpoint: mean survival time, dose: 12.5 mg/kg/injection, schedule: Q04DX003 (oral), vehicle: saline 106 % of control | endpoint: mean survival time, dose: 12.5 mg/kg/injection, schedule: Q04DX003 (oral), vehicle: water 104 % of control | endpoint: mean survival time, dose: 16.0 mg/kg/injection, schedule: Q03HX008 (ip), vehicle: clinical formulation 94 % of control | endpoint: mean survival time, dose: 16.0 mg/kg/injection, schedule: Q08DX002 (oral), vehicle: clinical formulation 100 % of control | endpoint: mean survival time, dose: 18.75 mg/kg/injection, schedule: Q01DX001 (sc), vehicle: other 107 % of control | endpoint: mean survival time, dose: 25.0 mg/kg/injection, schedule: Q01DX001 (oral), vehicle: saline with Tween-80 103 % of control | endpoint: mean survival time, dose: 25.0 mg/kg/injection, schedule: Q01DX001 (oral), vehicle: water 104 % of control | endpoint: mean survival time, dose: 25.0 mg/kg/injection, schedule: Q01DX009 (ip), vehicle: citric acid 108 % of control | endpoint: mean survival time, dose: 25.0 mg/kg/injection, schedule: Q01DX009 (ip), vehicle: clinical formulation 101 % of control | endpoint: mean survival time, dose: 25.0 mg/kg/injection, schedule: Q04DX003 (oral), vehicle: saline 104 % of control | endpoint: mean survival time, dose: 32.0 mg/kg/injection, schedule: Q01DX001 (oral), vehicle: clinical formulation 106 % of control | endpoint: mean survival time, dose: 32.0 mg/kg/injection, schedule: Q03HX008 (oral), vehicle: clinical formulation 110 % of control | endpoint: mean survival time, dose: 37.5 mg/kg/injection, schedule: Q01DX001 (oral), vehicle: other 110 % of control | endpoint: mean survival time, dose: 37.5 mg/kg/injection, schedule: Q01DX001 (sc), vehicle: saline 101 % of control and 109 % of control | endpoint: mean survival time, dose: 40.0 mg/kg/injection, schedule: Q#A X018 (ip), vehicle: other 105 % of control | endpoint: mean survival time, dose: 50.0 mg/kg/injection, schedule: Q01DX001 (oral), vehicle: water 104 % of control | endpoint: mean survival time, dose: 50.0 mg/kg/injection, schedule: Q01DX009 (ip), vehicle: saline with Tween-80 95 % of control | endpoint: mean survival time, dose: 50.0 mg/kg/injection, schedule: Q01DX009 (oral), vehicle: saline 110 % of control | endpoint: mean survival time, dose: 64.0 mg/kg/injection, schedule: Q04DX003 (ip), vehicle: Klucel (hydroxypropylcellulose) (HPC) 94 % of control and 95 % of control | endpoint: mean survival time, dose: 75.0 mg/kg/injection, schedule: Q01DX001 (oral), vehicle: saline 108 % of control | endpoint: mean survival time, dose: 75.0 mg/kg/injection, schedule: Q01DX001 (sc), vehicle: saline 103 % of control and 105 % of control | endpoint: mean survival time, dose: 75.0 mg/kg/injection, schedule: Q01DX009 (ip), vehicle: saline with Tween-80 98 % of control | endpoint: mean survival time, dose: 75.0 mg/kg/injection, schedule: Q04DX003 (ip), vehicle: clinical formulation 94 % of control | endpoint: mean survival time, dose: 75.0 mg/kg/injection, schedule: Q04DX003 (ip), vehicle: lactic acid 92 % of control | endpoint: mean survival time, dose: 80.0 mg/kg/injection, schedule: Q01DX009 (ip), vehicle: other 104 % of control | endpoint: mean survival time, dose: 80.0 mg/kg/injection, schedule: Q#A X018 (ip), vehicle: other 104 % of control | endpoint: mean survival time, dose: 80.0 mg/kg/injection, schedule: Q#A X018 (oral), vehicle: other 96 % of control | endpoint: mean survival time, dose: 100.0 mg/kg/injection, schedule: Q01DX009 (ip), vehicle: saline with Tween-80 93 % of control | endpoint: mean survival time, dose: 100.0 mg/kg/injection, schedule: Q04DX003 (oral), vehicle: water 110 % of control | endpoint: mean survival time, dose: 128.0 mg/kg/injection, schedule: Q01DX005 (ip), vehicle: saline 100 % of control | endpoint: mean survival time, dose: 128.0 mg/kg/injection, schedule: Q01DX009 (ip), vehicle: water 103 % of control and 108 % of control | endpoint: mean survival time, dose: 128.0 mg/kg/injection, schedule: Q08DX002 (ip), vehicle: clinical formulation 101 % of control | endpoint: mean survival time, dose: 150.0 mg/kg/injection, schedule: Q01DX001 (oral), vehicle: saline with Tween-80 108 % of control | endpoint: mean survival time, dose: 150.0 mg/kg/injection, schedule: Q01DX001 (sc), vehicle: saline 103 % of control and 110 % of control | endpoint: mean survival time, dose: 160.0 mg/kg/injection, schedule: Q01DX015 (oral), vehicle: carboxymethylcellulose (CMC) 104 % of control | endpoint: mean survival time, dose: 170.0 mg/kg/injection, schedule: Q01DX Z (oral), vehicle: saline 105 % of control | endpoint: mean survival time, dose: 200.0 mg/kg/injection, schedule: Q04DX003 (ip), vehicle: water 104 % of control | endpoint: mean survival time, dose: 256.0 mg/kg/injection, schedule: Q01DX005 (ip), vehicle: other 110 % of control | endpoint: mean survival time, dose: 256.0 mg/kg/injection, schedule: Q01DX009 (ip), vehicle: other 104 % of control | endpoint: mean survival time, dose: 300.0 mg/kg/injection, schedule: Q01DX001 (sc), vehicle: saline 110 % of control | endpoint: mean survival time, dose: 300.0 mg/kg/injection, schedule: Q04DX003 (ip), vehicle: saline with Tween-80 103 % of control | endpoint: mean survival time, dose: 300.0 mg/kg/injection, schedule: Q04DX003 (ip), vehicle: saline 100 % of control | endpoint: mean survival time, dose: 400.0 mg/kg/injection, schedule: Q04DX002 (ip), vehicle: Klucel (hydroxypropylcellulose) (HPC) 97 % of control | endpoint: mean survival time, dose: 400.0 mg/kg/injection, schedule: Q04DX003 (oral), vehicle: saline 93 % of control | endpoint: mean survival time, dose: 600.0 mg/kg/injection, schedule: Q01DX001 (ip), vehicle: Klucel (hydroxypropylcellulose) (HPC) 103 % of control | endpoint: mean survival time, dose: 600.0 mg/kg/injection, schedule: Q01DX001 (sc), vehicle: saline 109 % of control and 110 % of control | endpoint: mean survival time, dose: 960.0 mg/kg/injection, schedule: Q01DX001 (ip), vehicle: other 110 % of control | endpoint: median survival time, dose: 2.0 mg/kg/injection, schedule: Q03HX008 (oral), vehicle: other 100 % of control | endpoint: median survival time, dose: 4.0 mg/kg/injection, schedule: Q01DX009 (oral), vehicle: other 111 % of control | endpoint: median survival time, dose: 32.0 mg/kg/injection, schedule: Q01DX009 (oral), vehicle: other 100 % of control | endpoint: median survival time, dose: 32.0 mg/kg/injection, schedule: Q01DX009 (sc), vehicle: water 100 % of control | endpoint: median survival time, dose: 64.0 mg/kg/injection, schedule: Q01DX009 (oral), vehicle: other 94 % of control | endpoint: median survival time, dose: 256.0 mg/kg/injection, schedule: Q01DX001 (sc), vehicle: water 100 % of control | endpoint: median survival time, dose: 400.0 mg/kg/injection, schedule: Q04DX003 (ip), vehicle: saline with Tween-80 111 % of control
